In article PMC9714824, “Hexapeptides from mammalian inhibitory hormone hunt activate and inactivate nematode reproduction” (PLOS ONE, 2022):

What was measured:
[1] = tested on: MCF 7 human breast cancer cells; details: in words; EPL120 over 72h, dose range 0.04 nM– 4 μM; cited from earlier work
rat bone marrow cells = assay: Bone marrow cell assay, time-lapse cell counts over 24h; format: cell-based; details: EPL001, EPL030 at 6μM, EPL120 at 5μM final concentration, in words (Fig 6)
Experimental: The method has been described previously at length. Bone marrow cells, consisting of various cell types including mesenchymal stem cells and fibroblasts, were cultured from adult male rats (Rattus norvegicus, SD strain). These cells were passaged from a growing primary stock in a T75 tissue culture flask (Sarstedt) into a 48 well tissue culture plate (IWAKI), with a cell density of 1 x 10^5/ml. The cell culture media, henceforth referred to as ‘supplemented a-MEMS,’ comprised α-MEMS media supplemented with 10% FCS and 1% penicillin/streptomycin (all Life Technologies, Carlsbad, CA, US). On the day of peptide addition to the cells, the supplemented α-MEMS was gently removed and fresh supplemented α-MEMS added, with 10% test material by volume to achieve micromolar concentrations, untreated controls receiving just fresh supplemented α-MEMS. (For dose levels see legends in respective result figures) All samples were filter sterilised using a Millex-GV […] syringe filter unit (Merck, Kenilworth, NJ, USA). The cells were imaged for 24 h using an incubated Zeiss Axiovert 135M microscope with a Prior Proscan II motorised stage, at 37 °C with a 5% CO2 in air feed. Each well of the 48-well tissue culture plate was then imaged for 24h every 5 min using Metamorph software (MDS Analytical Technologies, Wokingham, UK), with each well having four fields of view. The viability and cell numbers were reviewed by analysing the images captured over the 24h period and cell counts were taken at selected time points using the Metamorph software.
Fig 6 Bone marrow cells in culture exposed to long peptides. Cells were counted over 24h after exposure to the 14mer peptide EPL001 or its scrambled-sequence control EPL030 at 6μM final concentration or to the 20mer EPL120 at 5μM final concentration, compared to peptide-untreated controls.
Fig 7 Bone marrow cells in culture exposed to hexapeptides. Cells were counted over 24h after exposure to either EPL016 (= MKPLTG, the ‘Front 6’ of the 14mer EPL001) or EPL036 (= IEPVFT, the ‘Back 6’ of EPL030, the scrambled-sequence control of EPL001) at 1μM final concentration, compared to peptide-untreated controls.

[2] = tested on: human marrow derived mesenchymal stem cells (hMSCs); assay: Peptide immobilisation studies, hMSC proliferation (CyQuant) and FACS; format: cell-based; details: alanine substitution study; for Mean cell number: N-terminally tethered, seeding 5,000 cells per well, CyQuant, mean +/− SEM, n = 3
Text: Could the antiproliferative activity in vitro of EPL001 in solution be more predictably evoked and investigated more readily if the peptide is instead tethered to the cell culture’s substratum? […] In the first study EPL001 was immobilised by either its N terminus or C terminus and human stem cells exposed accordingly. This followed a confirmation of dissolved EPL001’s antiproliferative activity in the same laboratory (JAH). In the second study, aa sections of EPL001 were substituted with alanine strings prior to tethering, to define a functional biological motif. Into the base of each well of a 24-well plate was inserted a glass coverslip (13mm diameter, borosilicate glass, SLS, Nottingham, UK), upon the upper surface of which had been immobilised an individual peptide using a bioconjugate technique. During preparation of the coverslips, the surfaces were modified with carboxyl (−COOH) or amine (−NH2) groups separately using a published method. The carboxyl on the coverslips or at the end of the peptide sequence were reacted with NHS in the presence of EDC, resulting in a semi-stable NHS ester, which could then be reacted with primary amines (−NH2) on the coverslips or at the end of the peptide sequences to form amide crosslinks. For the carboxyl modified coverslips, the final peptide grafted on to the surface via its NH2 terminus was in the form Glass-CO-NH-Peptide. For the amine modified coverslips, the final peptide grafted on to the surface via its COOH terminus was in the form Glass-NH-CO-Peptide. The concentration of the peptides across the glass was approximately […]. Uncoated glass was used as the reference control. Treatments were in triplicate (i.e. n = 3). The cells used were human marrow derived mesenchymal stem cells (hMSCs, Lonza, Slough, UK, cat No PT-2507). In the EPL001-terminus study they were seeded at 10,000 cells per well; in the alanine substitution study the density was 5,000 cells per well. The cells were maintained in DMEM with 10% FSC. EPL001 and three alanine-substituted versions of it were deployed separately: MKPLTGKVKEFNNI (EPL001), AAAAAGKVKEFNNI (EPL590), MKPLTAAAAEFNNI (EPL545) and MKPLTGKVKEAAAA (EPL104). The peptides in the alanine substitution study were N-terminally tethered to the substrate. Cell numbers were measured by CyQuant® (Invitrogen, Paisley, UK). […] Statistical analysis was by ANOVA using SPSS software.
Four 14-aa peptides were synthesised: MKPLTGKVKEFNNI (EPL001), AAAAAGKVKEFNNI (EPL590), MKPLTAAAAEFNNI (EPL545) and MKPLTGKVKEAAAA (EPL104). The peptides were generated from l-isomer amino acids by solid phase peptide synthesis (Model 9050, Milligen). All peptides were N-terminally tethered to the substrate by a bioconjugate technique. MSCs were derived from human bone marrow and maintained in DMEM with 10% FSC. Cells were seeded on peptide treated surfaces including a glass control in a 24-well plate with cell density 5 x 10^3. The growth inhibitory activity was examined via cell proliferation assays and cell cycle analysis, using PI and Ki-67 staining. The cell phenotype and viability (7-AAD) were analysed by flow cytometry.

LNCaP cells = assay: MTS viable cell assay, LNCaP (Epistem); format: cell-based, human; details: over 72h, single dose level
Experimental: (§1) Further assays on human prostate cancer cells were conducted at a contract research organisation (Epistem, Manchester, UK). LNCaP or DU145 cells seeded at 3,000 cells/well across a 96-well plate were cultured in RPMI (phenol red free), 10% FCS, 1% sodium pyruvate, Pen/strep and L-glutamine for 24h before exposure to peptides, at a single dose level in the case of LNCaPs or multiple dose levels in the case of DU145s. (For dose levels see Results.) Controls received vehicle (1% PBS). For the DU145s peptide administration was repeated after 24h. 72h after the first administration (DU145s) or only administration (LNCaP) total viable cell numbers were measured colorimetrically (MTS) using a CellTiter 96 AQueous One Solution Cell Proliferation Assay (Promega, Southampton, UK), following manufacturer’s instructions. Briefly, the media on the plates was replaced with the CellTiter reagent diluted 1:5 in DMEM. The plates were returned to the incubator for 3 hours before reading absorbance at 492 nm on a FLUORstar OPTIMA (BMG Labtech). CellTiter data are the absorbance minus background values (CellTiter plus DMEM), expressed as (OD mean +/− SEM). Statistical analysis was by ANOVA, Dunnett’s multiple comparisons test.

human dental pulp cells = details: 5μM (single starting dose) in the cell medium; over 7 days; cited from earlier work
Text: EPL001 is a found sequence, as described in the Introduction. As a 14mer synthetic peptide it has been represented elsewhere as a minimized ball and stick model in silico [9]. […] An anti-EPL001 antibody administered alone potentiated compensatory renal grow ...

PNT2 cells = assay: MTS colorimetric viable cell assay, PNT2; format: cell-based, human; details: 30 μM, 27h, 492 nm, triplicate
Experimental: (§2) Assays involving a range of peptides from 14mer down to 6mers assessed total viable PC3 or PNT2 cells using a 96-well plate MTS colorimetric assay (CellTiter 96 Aqueous One Solution Cell Proliferation Assay, Promega, Southampton, UK), with absorbance measured at 492 nm. Cells were seeded at 8,000 per well and grown for 27h. Peptides were administered at the outset to a final concentration of 30 μM (in 2 μl) to samples in triplicate. (A higher dosage was used than in the 14mer peptides study to shorten the timecourse of response.) Controls received buffer. Data are OD mean +/ − SEM, with statistical analysis by two tailed t-test. A time course study of the 14mers on PC3s, using the same technique, involved measurements at 24h and 48h.
(§3) Fig 5 Effects of a range of peptides on human prostate cancer cell growth in vitro. Assays involved a range of peptides from 14mers down to 6mers (Table 1), with viable cells assessed using a 96-well plate MTS colorimetric assay. Absorbance measured at 492 nm. Cells were seeded at 8,000 per well and grown for 27h. Peptides were administered at the outset to a final concentration of 30 μM (in 2 μl) to samples in triplicate. Controls received buffer. Data are OD mean +/- SEM, with statistical analysis by two tailed t-test. * p<0.05; **p<0.025.

DU145 cells = assay: MTS viable cell assay, DU145 (Epistem); format: cell-based, human; details: DU145, 72h
Experimental: as §1

PC3 cells = assay: MTS colorimetric viable cell assay, PC3; format: cell-based, human; details: PC3; 30 μM; 27h; MTS, 492 nm; triplicate
Experimental: as §2, §3

mouse renal cell = details: in words; cited from earlier work

| Substance | Reduction in test mean OD versus the vehicle control mean (LNCaP cells) [%] | Difference in percentage terms between control and test OD means (PNT2 cells) [%] | Test mean OD vs control mean (DU145 cells; 0.015 μM) | Test mean OD vs control mean (DU145 cells; 0.15 μM) [%] | Test mean OD vs control mean (DU145 cells; 1.5 μM) [%] | Test mean OD vs control mean (DU145 cells; 15 μM) [%] | Test mean OD vs control mean (DU145 cells; 150 μM (highest concentration)) [%] | Difference in percentage terms between control and test OD means (PC3 cells) [%] | also measured |
| --- | --- | --- | --- | --- | --- | --- | --- | --- | --- |
| EPL120: EPL001 Edman sequence tentatively extended 6 further reads, to make a 20mer (MKPLTGKVKEFNNIKGFGVI) | – | – | – | – | – | – | – | – | Inhibition of IGF-1 stimulated growth in MCF-7 cell numbers [1]: dose-dependent inhibition; Effect on bone marrow cells in culture (rat bone marrow cells): pro-apoptotic |
| AAAAAGKVKEFNNI [EPL590, Substituted EPL001; alanines 1–5] | −21.4 | – | – | – | – | – | – | – | Cell number vs Glass ([2]; Day 7): 16%; Cell number vs Glass ([2]; Day 14): −23%; Mean cell number ([2]; Day 7): 11,805 +/−4,028; Mean cell number ([2]; Day 14): 20,347 +/−2,264 |
| KVKEFNNI [EPL018, KVKEFNNI, EPL001 Back 8] | – | – | – | – | – | – | – | – | Reduction in cell numbers (human dental pulp cells): ~ 17% |
| MKPVFN [EPL601] | −16.0 | −33.2 | +6.9% | −4.3 | −10.4 | −11.4 | −14.3 | −28.0 | – |
| KGNEVMKLFPTINE [EPL010, Scrambled control (Haylor et al, 2009)] | – | – | – | – | – | – | – | – | Activity in a mouse renal cell assay in vitro (mouse renal cell): inactive |
| MKPNFN [EPL600] | −35.1 | −39.7 | +8.6% | −0.1 | −8.4 | −7.1 | −16.9 | −27.3 | – |
